Consider one molecule from patent publication US20260174780A1, “BISMUTH-THIOL COMPOSITIONS AND METHODS FOR TREATING INFLAMMATORY DISEASES” (Microbion Corporation, priority 2022, published 2026).

Data set [1] has as its system M. abscessus strain 19977. The data set is described as follows: Chronic M. abscessus lung infection in SCID mice, inhaled treatment, lung CFU. Format: in vivo, SCID/Beige mice. Here is the method:
In vivo studies were conducted in mice to separately model chronic M. abscessus infection. The animals were treated for 28 days and grouped according to dosage: vehicle, low dose BisEDT, high dose BisEDT, and amikacin. At the end of treatment, blood, lungs were collected for analysis. […] Histopathology was conducted on lung samples from the in vivo studies.
A total of sixty female SCID/Beige mice between 6-8 weeks of age were used. Mice were placed up to 4 animals per cage and allowed 1 week of acclimation prior to infection.
Inoculums of M. abscessus strain 19977 (MAB) used in this study were made from highly virulent frozen stocks with low passage numbers. Bacteria were allowed to grow to log phase after 4 days on 7H10 media agar plates at 37° C. Once confluent, inoculums were made by suspending bacteria at 10^9 in Hank's balanced salt solution (HBSS) as determined by optical density (O.D.) and further quantified by serial dilution to determine the CFU/mL of suspension. At this higher concentration of bacteria, only 20 μL of inoculum was necessary to deposit […] bacteria per mouse.
On the day of infection mice were anesthetized with isoflurane by the drop jar method. Mice were scruffed in a standard one-handed grip and the nose of the mouse is held of a tube containing gauze containing a small amount of isoflurane. Mice were monitored for breathing and once rapid breaths have slowed down initially the mouse is removed from direct anesthesia and 20 μL of bacterial suspension was deposited on the left nostril. The mice then slowly breath in the droplet. Each mouse was then held in hand until complete consciousness was obtained and then the mouse was replaced into its home cage. After infection was initiated, 3 weeks were allowed to pass in order to allow the bacteria to establish a chronic lung pathology for eventual treatment.
After establishing each infection, 12 mice were euthanized the day before treatment began to determine the baseline bacterial load. Mice were euthanized using CO2 in accordance with the recommendations of the Guide for the Care and Use of Laboratory Animals (NRC 2011). Lungs were collected and homogenized then serial diluted for CFU enumeration.
A nose-only inhalation exposure chamber from CH technologies was used for this experiment. Mice were split into four treatment groups, Vehicle (buffer containing no BisEDT), amikacin (100 μg/kg/day), BisEDT “low” (200 μg/kg/day), and BisEDT “high” (1000 μg/kg/day). Each treatment group consisted of 12 mice. […]
After 28 days of treatment with BisEDT, animals were euthanized by CO2 and secondary cardiac puncture to collect whole blood for quantitation of BisEDT concentration. […] CFUs were determined after serial dilution. […]

Data set [2] is described as follows: Tolerability of inhaled BisEDT in the M. abscessus mouse study. Format: in vivo, SCID/Beige mice. As to conditions: inhaled 200 and 1000 μg/kg/day, 28 days. How it is done: A nose-only inhalation exposure chamber from CH technologies was used for this experiment. Mice were split into four treatment groups, Vehicle (buffer containing no BisEDT), amikacin (100 μg/kg/day), BisEDT “low” (200 μg/kg/day), and BisEDT “high” (1000 μg/kg/day). Each treatment group consisted of 12 mice. Ten of these mice were used for CFU determination and two mice are used for histology/pathology/lung pharmacokinetics. Treatment was conducted 6 days a week over the course of 28 days total. To create the correct level of deposited dose of each drug tested, 10 mL of test article were made. Amikacin in HBSS at 20 mg/mL was made and stored at 4° C. until needed. BisEDT “high” at a concentration of 8 mg/mL was made once a week and stored at room temperature. BisEDT “low” was diluted from the 8 mg/mL to 1.6 mg/mL the day of treatment. Each treatment used an LC star reusable nebulizer from Pari. Animals were restrained and placed on the inhalation apparatus. The respiratory hose was connected to the inhalation apparatus and a compressor was connected to the nebulizer. The rate of air flow from the compressor to the nebulizer remained at 8.5 L/minute, which generated a nebulized fog that each mouse breathed in over 45 min.

In data set [3] the test system is M. abscessus clinical strains. Description: Activity in the macrophage system against M. abscessus clinical strains. As to conditions: all three clinical strains tested. The class given is cell-based.
Data set [4] deals with AIM2 inflammasome. The data set is described as follows: qPCR of AIM2 in BEAS-2B cells. The class given is cell-based, human. As to conditions: 0.5-4 μg/mL, 24 hours. Here is the method: (§1) Protocol: BEAS-2B cells were grown in tissue culture flasks and a 24-well plate was seeded with 2×10^5 cells/well and incubated at 37° C. and 5% CO2 for 48 hours. Select wells were treated with either 4 μg/mL, 2 μg/mL, 1 μg/mL, or 0.5 μg/mL BisEDT or left untreated as a control and incubated at 37° C. and 5% CO2 for 24 hours. Cell culture supernatant was collected from each well and stored at −20° C. until further ELISA analysis. On the day of the ELISA assays to determine the expression of each cytokine, cell culture supernatant was thawed, and the assays performed following the manufacturer's instructions. Cells were collected for RNA isolation using Qiagen RNeasy kit using manufacturers' instructions. Briefly, genomic DNA was degraded with DNase (Roche) and samples were incubated at 37° C. for 1 hour followed by 3 μL DNase inactivation reagent (Invitrogen) incubated at 37° C. for 2 minutes. Samples were centrifuged at maximum speed for 5 minutes to remove the inactivation reagent. RNA concentration and quality was evaluated using a Nanodrop. RNA samples were utilized to generate cDNA using cDNA synthesis kit (Bio-Rad). qPCR for AIM2 and actin (housekeeping gene) was conducted using SYBR green kit (Bio-Rad) along with standards.

Data set [5] has as its system AIM2 inflammasome. Description: qPCR of AIM2 in HUVEC cells. The class given is cell-based, human. As to conditions: HUVEC cells, 0.5, 1, 2 or 4 μg/mL, 24 hours, compared to untreated cells. How it is done:
as §1, with “HUVEC” for “BEAS-2B”, “manufacturer's” for “manufacturers'”, “standard.” for “standards.”
On the technique in general: In qPCR the cycle at which signal appears reflects the starting amount.

Data set [6] in a line: Earlier 28-day tolerability work in rats. To be noted: 28 days.

For `C1C[S][Bi]([S]CC[S][Bi]2[S]CC[S]2)[S]1` [BisEDT, 1,2-(Bis(1,3-dithia-2-bismolane)thio)ethane], the entries for the “CFU count in lung homogenates” value in data set [1] (200 μg/kg (low)) and in data set [1] (1000 μg/kg (high) delivered to the lungs) were “bacteriostatic effect” and “bactericidal”, respectively. Moreover, in data set [1] (1000 μg/kg/day, p-value=0.0163), the “lung CFU, high-dose group vs vehicle control” value is “statistically significant difference”. Besides, in data set [1] (inhaled 200 and 1000 μg/kg/day, 28 days, Kruskal-Wallis test), the “lung CFU” value was “dose-dependent response”. The “body weight at the end of treatment” value in data set [2] is “within the normal weight range”. For the same molecule, the tolerability result in data set [2] is recorded as “well tolerated”. Further, in data set [3], the “activity against M. abscessus in the macrophage system” value is “very active (bactericidal)”. Moreover, the “AIM2 inflammasome expression (AIM2/Actin copy number)” value in data set [4] and in data set [5] was “inhibit AIM2 inflammasome expression” throughout. The “dose highly tolerated without adverse effects” value in data set [6] was 59 µg/kg/day.
